# Assay results: ChEMBL document CHEMBL3507680, “University of Dundee, Gates Library screen for HepG2 cell viability”
# Test: Human HepG2 cell viability assay in 384 well format
# Assay type: toxicity, cell-based
# Set-up: dose 125 nL, time 70.5 hour; concentration not given beside the values
# Details: HepG2 cells, read-out: Inhibition
row,SMILES,cytotoxicity at 70.5 h [%]
1,Cn1cccc1C(=O)N1CCCCC1c1[nH]ncc1S(C)(=O)=O (stereo not drawn),-5.18
2,CC(=O)N1CCCC(Cc2cnc(-c3c(C)nn(C)c3C)cn2)C1 (stereo not drawn),-7.67
3,OCc1cc2ccccc2nc1NCC1CCN(CC(F)(F)F)C1 (stereo not drawn),27.3
4,COc1c(Cl)cc(Cl)cc1CN1CCC(C(N)=O)C1 (stereo not drawn),8.49
5,COc1cccc(S(=O)(=O)NC(=O)COc2c(C)cccc2C)c1,-9.64
6,CCC(CNC(=O)c1ccccc1Br)N1CCc2ccccc2C1 (stereo not drawn),-9.67
7,CN(CCC(=O)NC1CC1)Cc1ccc(Cl)s1,-7.03
8,COC(=O)CNc1cc(C(=O)NCC(F)(F)F)cc(F)c1C,-2.26
9,Cc1cc(CN2C[C@@H](C)[C@@]3(CCN(C)C3=O)C2)oc1C,-5.99
10,Cc1cnn(CC(=O)N2CCCN(c3nc(C)cs3)CC2)c1,0.581
11,CSCC(C)(O)CNc1ncccc1C(F)(F)F (stereo not drawn),1.25
12,CCc1nc(CCNc2ccc(S(N)(=O)=O)cc2C#N)cs1,-21
13,Cc1cc(C)n(CC2CN(Cc3nnc(C)o3)CCO2)n1 (stereo not drawn),-3.59
14,O=C(CN1CCOC1=O)N1CCc2nnc(-c3ccccc3)n2CC1,11.7
15,Cc1cccc(C(=O)N2CC[C@]3(C[C@H](OCc4ccccn4)CO3)C2)c1,11.1
16,COc1ccc2nc(CNC(=O)c3cc(C(C)C)on3)[nH]c2c1,-14.8
17,Cc1ccccc1C1(CNC(=O)c2ccc(S(C)(=O)=O)cc2)CC1,3.63
18,O=C1CN(c2ccc(CNC(=O)c3ccc[nH]3)cc2F)CCN1,1.47
19,CC(C)N1CCC2(CC1)C(=O)N(c1cccnc1)c1ccc(F)cc12,-0.653
20,CCc1n[nH]c(C(=O)N2CCCC3(CN(C)C(=O)O3)C2)c1C (stereo not drawn),-13.7

row,SMILES,cytotoxicity at 70.5 h [%]
1,Cc1nn(-c2ccccc2)c(C)c1CNC(=O)NC1CC1,-3.17
2,CCN(CC)C(=O)c1ccn(COc2ccccc2)n1,-7.93
3,COCCc1ncc(CN2CCC(Oc3ccccc3C)CC2)cn1,-0.184
4,Cc1ccc(N2CCCC(NCc3ccc(-n4ccnc4)cc3)C2)nn1 (stereo not drawn),17.4
5,Cn1cc(C(=O)N[C@H]2CN(Cc3nccs3)[C@@H]3CCCO[C@H]23)cn1,-8.57
6,Cc1cc(CNCCNS(C)(=O)=O)sc1Br,4.81
7,CC(C)N1CCC(Cn2cc(C(N)=O)cn2)CC1,11.9
8,CCc1ncc(C(=O)N2CCCC2Cn2cccn2)s1 (stereo not drawn),12.3
9,Cn1cc(-c2csc(N3CCSCC3)n2)cn1,-3.33
10,Cc1noc(C(C)N2CCC(c3nc4ccccc4[nH]3)CC2)n1 (stereo not drawn),-3.97
11,COc1c(C(=O)NCC(C)Sc2ccccc2)c(C)nn1C (stereo not drawn),-5.69
12,CC(=O)NCC(=O)N1Cc2c(-c3cccc(C)c3)nc(N)nc2C1C (stereo not drawn),-13.1
13,O=C(c1ccoc1)N1CC[C@H]2OCC[C@@]2(COc2ncccc2F)C1,-9.01
14,O=C(NCc1cncc2c1CCN(Cc1ccoc1)C2)C1CC1,-0.887
15,COc1cccc(Cc2nnc(SCCS(C)(=O)=O)o2)c1,-8.26
16,CC(C)c1ncc2c(n1)CN(CC1CCCCO1)CC2 (stereo not drawn),-2.55
17,Cc1cnc(N2CCC[C@@H]3CN(CC(=O)N(C)C)C[C@@H]32)nc1,-6.11
18,Cc1cccnc1CN1CCC2(CC(Nc3ccncn3)C2)C1 (stereo not drawn),1.25
19,CCOCCN1CCN(Cc2cccc(C(=O)N(C)C)c2)CC1,40.4
20,O=C(Nc1cc(Cl)ccn1)c1nc(N2CCCC2)ncc1Cl,-2.78

row,SMILES,cytotoxicity at 70.5 h [%]
1,CN1[C@@H](C(=O)NCC2CC2)C[C@H]2CN(Cc3cccc(C#N)c3)C[C@H]21,-13.8
2,C/N=C1\c2cc3cc(OC)ccc3n2CCN1C,-6.1
3,CNc1nccc(-c2cnc3sc(C)c(C)n3c2=O)n1,0.0839
4,COCCNCc1ccc(OCC(=O)NC(C)(C)C)cc1,19.6
5,O=C1CC2(CCCNC2)C(=O)N1Cc1cccc(Cl)c1 (stereo not drawn),29.4
6,CCC1CN(Cc2nnc(C(C)C)o2)CCC(=O)N1Cc1ccccc1 (stereo not drawn),-10.7
7,Cc1noc(C(C)C)c1C(=O)NS(=O)(=O)c1ccc(Cl)cc1,-3.31
8,CCN(CC)Cc1cc(=O)n2c(n1)CN(C(=O)c1ccc[nH]1)CCC2,-4.87
9,COc1cc(CNCCNC(=O)c2ccc(O)cc2)ccc1SC,55.5
10,CC(C)N(C)C[C@H]1C[C@@H]2CN(Cc3ccco3)C[C@@H]2O1,-1.96
11,N#Cc1ncn(CCS(=O)(=O)c2ccc(Br)cc2)n1,4.43
12,CCOc1ccccc1CN(C)C(=O)CN1C(=O)OC[C@@H]1C(C)C,15.5
13,CN(CCCOc1ccccc1)S(=O)(=O)c1cnn(C)c1,21.2
14,CCN1C(=O)CCC12CCCN(Cc1nccs1)CC2 (stereo not drawn),-8.57
15,O=C(CN1CCCCC1=O)N1CCC2(CC1)[C@H](O)C[C@@H]2O,-3.31
16,CCOc1cccc(CNC(=O)NC2CC=CC2)c1OC(F)F,0.101
17,CN(C)CC1(O)CCN(C(=O)c2ccc(-n3cnnc3)cc2Cl)C1 (stereo not drawn),7.55
18,CNS(=O)(=O)Cc1ccc(CNC(=O)c2cccc(C)n2)cc1,-1.09
